Measurements reported in patent US20020193383A1, “1-(N-phenylalkylaminoalkyl)piperazine derivatives substituted at position 2 of the phenyl ring” (Recordati S.A., Chemical and Pharmaceutical Comoany, priority 1997, published 2002).

Target: T1, human 5-HT1A serotonergic receptor (Homo sapiens, UniProt P08908)
T1 construct: expressed in transfected cells; host or cells: HeLa (stably transfected)
T1 sequence (P08908 1-422): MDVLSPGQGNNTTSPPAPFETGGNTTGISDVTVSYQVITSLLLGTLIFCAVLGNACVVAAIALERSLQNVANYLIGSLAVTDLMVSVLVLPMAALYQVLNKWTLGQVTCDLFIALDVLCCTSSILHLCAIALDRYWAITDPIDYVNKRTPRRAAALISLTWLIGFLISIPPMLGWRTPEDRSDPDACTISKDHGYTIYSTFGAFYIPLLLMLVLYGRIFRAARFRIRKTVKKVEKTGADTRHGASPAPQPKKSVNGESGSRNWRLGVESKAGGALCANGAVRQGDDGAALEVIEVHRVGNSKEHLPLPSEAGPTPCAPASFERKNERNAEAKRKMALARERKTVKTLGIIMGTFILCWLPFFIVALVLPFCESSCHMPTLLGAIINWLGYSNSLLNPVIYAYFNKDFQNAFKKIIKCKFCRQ
Assay: Binding to recombinant human 5-HT1A receptors ([3H]8-OH-DPAT, HeLa cell membranes)
Conditions: read-out: Binding affinity for the 5-HT1A receptor, Ki
Experimental: Genomic clone G-21 coding for the human 5-HT1A serotonergic receptor is stably transfected in a human cell line (HeLa). HeLa cells were grown as monolayers in Dulbecco's modified Eagle's medium (DMEM), supplemented with 10% fetal calf serum and gentamicin ([…]), 5% CO2 at 37° C. Cells were detached from the growth flask at 95% confluence by a cell scraper and were lysed in ice-cold 5 mM Tris and 5 mM EDTA buffer (pH 7.4). Homogenates were centrifuged at 40000×g×20 min and pellets were resuspended in a small volume of ice-cold 5 mM Tris and 5 mM EDTA buffer (pH 7.4) and immediately frozen and stored at −70° C. until use. On the day of experiment, cell membranes were resuspended in binding buffer: 50 mM Tris HCl (pH 7.4), 2.5 mM MgCl2, 10 μM pargiline (Fargin et al., Nature 335, 358-360, 1988). Membranes were incubated in a final volume of 1 ml for 30 min at 30° C. with 0.2-1 nM [3H]8-OH-DPAT, in absence or presence of competing drugs; non-specific binding was determined in the presence of 10 μM 5-HT. The incubation was stopped by addition of ice-cold Tris-HCl buffer and rapid filtration through 0.2% polyethyleneimine pretreated Whatman GF/B or Schleicher & Schuell GF52 filters.
The inhibition of specific binding of the radioligands by the tested drugs was analyzed to estimate the IC50 value by using the non-linear curve-fitting program Allfit (De Lean et al., Am. J. Physiol. 235, E97-E102, 1978). The IC50 value was converted to an affinity constant (Ki) by the equation of Cheng & Prusoff (Cheng, Y. C.; Prusoff, W. H. Biochem. Pharmacol. 22, 3099-3108, 1973).

Structure (SMILES)	Ki [nM]
COc1cc(O)ccc1N1CCN(CCN(C(=O)C2CCCCC2)c2ccccc2OC(F)(F)F)CC1 [Example 93, 1[N-cyclohexylcarbonyl-N-(2-trifluoromethoxyphenyl)-2-aminoethyl]-4-(4-hydroxy-2-methoxyphenyl)piperazine]	1.6
COc1cc(OC(C)=O)ccc1N1CCN(CCN(C(=O)C2CCCCC2)c2ccccc2OC(F)(F)F)CC1 [Example 94, 1-[N-cyclohexylcarbonyl-N-(2-trifluoromethoxyphenyl)-2-aminoethyl]-4-(4-acetoxy-2-methoxyphenyl)piperazine]	2.14
COc1cc(OC(=O)C(C)C)ccc1N1CCN(CCN(C(=O)C2CCCCC2)c2ccccc2OC(F)(F)F)CC1 [Example 96, 1-[N-cyclohexylcarbonyl-N-(2-trifluoromethoxyphenyl)-2-aminoethyl]-4-[4-(2-methylpropionyloxy)-2-methoxyphenyl]piperazine]	1.2
